Measured values as given in patent US5189033A, “Tricyclic heterocycles” (Imperial Chemical Industries PLC, priority 1991, dated 1993).
Where two headings read alike, the source gives them in different places.

Experiments:
[1] = molecular target: T1, EP1 receptors (PGE2-induced contractions of the ileum) (Cavia porcellus, UniProt A0A286XHJ6); test: Test (a): in-vitro guinea pig ileum assay, inhibition of PGE2-induced contractions; conditions: PGE2-induced contraction of guinea pig ileum, read-out: pA2 value (converted)
T1 construct: ileum was immersed in oxygenated Krebs solution containing indomethacin; from tissue; host or cells: guinea pig ileum
T1 sequence (A0A286XHJ6 1-405): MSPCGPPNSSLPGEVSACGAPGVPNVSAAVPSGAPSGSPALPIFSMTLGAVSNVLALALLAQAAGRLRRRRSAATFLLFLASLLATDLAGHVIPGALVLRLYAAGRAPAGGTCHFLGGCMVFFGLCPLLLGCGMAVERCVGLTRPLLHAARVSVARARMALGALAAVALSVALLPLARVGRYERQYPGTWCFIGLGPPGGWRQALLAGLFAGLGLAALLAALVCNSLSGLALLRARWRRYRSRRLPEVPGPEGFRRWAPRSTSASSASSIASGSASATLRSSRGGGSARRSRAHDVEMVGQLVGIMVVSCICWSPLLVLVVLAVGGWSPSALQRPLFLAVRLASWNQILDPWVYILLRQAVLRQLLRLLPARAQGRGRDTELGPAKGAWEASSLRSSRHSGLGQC
Method: (a) an in-vitro guinea pig ileum assay which assesses the inhibitory properties of a test compound against PGE2 -induced contractions of the ileum; ileum was immersed in oxygenated Krebs solution containing indomethacin (4 μg/ml) and atropine (1 μM) and which was maintained at 37° C.; the ileum was subject to a resting tension of 1 g; a control dose response curve for PGE2 -induced contraction of the ileum was obtained; test compound (dissolved in dimethylsulphoxide) was added to the Krebs solution and a dose response curve for the PGE2 -induced contraction of the ileum in the presence of the test compound was obtained; the pA2 value for the test compound was calculated;
Prostanoid receptors and in particular receptors for PGE2 have been tentatively characterised by Kennedy et al. (Advances in Prostaglandin, Thromboxane and Leukotriene Research, 1983, 11, 327).

[2] = test system: writhing induced by the intraperitoneal administration of phenylbenzoquinone; test: Test (c): in-vivo assay in mice, writhing induced by phenylbenzoquinone (PBQ); conditions: at 100 mg/kg, oral dosing
From the text: (c) an in-vivo assay in mice which assesses the inhibitory properties of a test compound against writhing induced by the intraperitoneal administration of phenylbenzoquinone (hereinafter PBQ) using the procedure disclosed in European Patent Application No. 0218077.

[3] = test system: writhing induced by the concomitant administration of PGE2 and bradykinin; test: Test (b): in-vivo assay in mice, writhing induced by PGE2 and bradykinin; conditions: Mus musculus, oral dosing, read-out: ED50 for antagonism of the writhing response
[4] = test system: PGE2 receptors; conditions: cited from earlier work

Row | Kb [1] | Compound | activity in Test (c) [2] | ED50 [3] | block of the effect of PGE2 ([4]; cat trachea or chick ileum) | block of the effect of PGE2 ([4]; guinea pig ileum or dog fundus)
1 | 0.0398 µM | O=C(O)c1cccc(CN2Cc3ccccc3Oc3ccc(Cl)cc32)c1 [Example 1, 3-(8-chloro-10,11-dihydrodibenzo[b,f]-[1,4]oxazepin-10-ylmethyl)benzoic acid] | significant activity |  |  | 
2 | 0.1 µM | O=C(O)c1ccc(CN2Cc3ccccc3Oc3ccc(Cl)cc32)cc1 [Example 2, 4-(8-chloro-10,11-dihydrodibenzo[b,f][1,4]oxazepin-10-ylmethyl)-benzoic acid] |  | 19 mg/kg |  | 
3 |  | CC(=O)NNC(=O)N1Cc2ccccc2Oc2ccc(Cl)cc21 [SC-19220] |  |  | not on other tissues | blocks the effect of PGE2
